This passage reports LD50 and CC50 results from ChEMBL document CHEMBL1781948, “Cytotoxic veraguamides, alkynyl bromide-containing cyclic depsipeptides from the marine cyanobacterium cf. Oscillatoria margaritifera” (2011).

Activity calls are given as the source filed them. No cut-off for these calls is given here. Where a SMILES comes first, the peptide text is derived from it. [ ]: non-standard residue; d: D form. The star is where a group is joined. Hmpa(2S,3S) = CC[C@H](C)[C@H](O)C(=O)O; X1 = C[C@H](C(=O)*)[C@H](O)CCCC#CBr; NMeV = CN[C@H](C(=O)O)C(C)C; Hiv = CC(C)[C@H](O)C(=O)O

The test system of this test is NCI-H460. Briefly: Cytotoxicity against human H460 cells after 48 hrs by MTT assay. It counts as functional.

As for `C#CCCC[C@H]1OC(=O)[C@H](C(C)C)N(C)C(=O)[C@@H]2CCCN2C(=O)[C@H]([C@@H](C)CC)OC(=O)[C@H](C(C)C)N(C)C(=O)[C@H](C(C)C)NC(=O)[C@H]1C`, the LD50 result was “Active”.

With `CCOC(=O)[C@H](C(C)C)N(C)C(=O)[C@@H]1CCCN1C(=O)[C@@H](OC(=O)[C@H](C(C)C)N(C)C(=O)[C@@H](NC(=O)[C@@H](C)[C@H](O)CCCC#CBr)C(C)C)C(C)C` (X1-V[NMeV][Hiv]P[NMeV]-OEt), the LD50 entry is “Active”.

In the case of `CCOC(=O)[C@H](C(C)C)N(C)C(=O)[C@@H]1CCCN1C(=O)[C@@H](OC(=O)[C@H](C(C)C)N(C)C(=O)[C@@H](NC(=O)[C@@H](C)[C@H](O)CCCC#CBr)C(C)C)[C@@H](C)CC` (X1-V[NMeV][Hmpa(2S,3S)]P[NMeV]-OEt), the LD50 entry is “Active”.

On to `CC[C@H](C)[C@@H]1OC(=O)[C@H](C(C)C)N(C)C(=O)[C@H](C(C)C)NC(=O)[C@@H](C)[C@@H](CCCC#CBr)OC(=O)[C@H](C(C)C)N(C)C(=O)[C@@H]2CCCN2C1=O` [VERAGUAMIDE A], for which the CC50 (NCI-H460, 48 h, read-out: LD50 (the source's name)) was found to be 141 nM.

`CC(C)[C@@H]1NC(=O)[C@@H](C)[C@@H](CCCC#CBr)OC(=O)[C@H](C(C)C)N(C)C(=O)[C@@H]2CCCN2C(=O)[C@H](C(C)C)OC(=O)[C@H](C(C)C)N(C)C1=O`: the LD50 result was “Active”.
